Reference: patent US20070275911A1, “Targeted Drug-Formaldehyde Conjugates and Methods of Making and Using the Same” (priority 2003, published 2007)

How the values were obtained:
MDA-MB-231 = test: Breast cancer cell growth inhibition, 4 h treatment
Method: Breast cancer cell growth inhibition: The ER-targeted DOX-formaldehyde conjugates, 11a-c, were evaluated against four breast cancer cell lines that differ in terms of estrogen receptor and multidrug resistance expression. MCF-7 cells are human breast adenocarcinoma cells that express estrogen receptor at a level of 195,000 sites/cell. MCF-7/Adr cells are an ER-negative, doxorubicin-resistant variant of the parent MCF-7 that express the multidrug resistance (MDR) phenotype. MDA-MB-231 and MDA-MB-435 are ER-negative human breast adenocarcinoma and ductal carcinoma cells, respectively. All cytotoxins were formulated as 100× solutions in DMSO/1% AcOH and delivered to cells as 1% DMSO (0.01% AcOH) in cell culture medium. In all experiments cell treatment lasted 4 h.
In Vitro cellular growth inhibition experiments: The IC50 for the targeted formaldehyde conjugates and all control compounds were performed as previously described with minor modifications. All compounds were solubilized in dimethylsulfoxide containing 1% v/v acetic acid. The concentrations of all 100× DMSO/1% AcOH drug solutions was determined spectrophotometrically by absorbance at 480 nm (ε=[…]). […] For every experiment each drug level and controls were performed in hexuplicate; each experiment was performed in at least duplicate. Error bars represent one standard deviation about the mean for the six wells per lane measured for each drug concentration.

Rtx-6 cells = test: Growth inhibition of Rtx-6 cells, 4 h treatment; format: cell-based
Method: Effect of DOX-TEG-TAM on AEBS-negative Rtx-6 breast cancer cells: Rtx-6 cells, kindly provided by Dr. Marc Poirot (Toulouse, France), were evaluated as an AEBS-negative control cell line. […] The Rtx-6 cells were utilized to determine the effect of the absence of AEBS on the cytotoxicity and uptake of DOX, DOXSF, and DOX-TEG-TAM.
The IC50's are compared in Table 6 with those previously determined for MCF-7, MCF-7/Adr, MDA-MB-231 and MDA-MB-435 cells. The concentrations inhibiting 50% of cell growth following 4 h treatment with DOX, DOXSP, and DOX-TEG-TAM were 200 nM, 60 nM, and 70 nM, respectively.
Growth inhibition of Rtx-6 cells: The concentration inhibiting half the growth (IC50) was determined as previously described with minor modifications.

MCF-7/Adr cells = test: Uptake and release by flow cytometry; format: cell-based, human; conditions: for drug uptake (DOX fluorophore): 500 nM, 20, 40 and 60 min
Method: Uptake and release of DOX-TEG-TAM: The uptake of 500 nM DOX, DOXSF, and DOX-TEG-TAM following treatment for various times up to 1 h was assessed by flow cytometry. […] The release of drugs following a 500 nM treatment for 1 h was assessed at various times out to 6 h post-treatment. Resistant MCF-7/Adr cells were first assessed as they provide a means to evaluate the AEBS targeting hypothesis to explain the dramatic improvement in tumor cell growth inhibition observed for DOX-TEG-TAM relative to DOXSF and clinical DOX. […] In all three cases the drug fluorescence decreased dramatically up to 1 h post-treatment, as free drug was transported from the cell. […] The enhanced uptake and retention of DOX-TEG-TAM relative to DOX and DOXSF parallels the growth inhibition data of Example 4 and provides evidence in favor of the targeting hypothesis involving interaction with AEBS.
(§1) Uptake and release of DOX, DOXSF, and DOX-TEG-TAM: The uptake and release of DOX-TEG-TAM in breast cancer cells relative to DOX and untargeted DOXSF was performed as described with modifications. Breast cancer cells in log phase growth were dissociated with trypsin-EDTA, counted, resuspended in media at 1.5×10^5 cells/mL, and plated into six well plates (450,000 cells/well) and allowed to adhere overnight. The cells were treated with 0.5 μM DOX, DOXSF, or DOX-TEG-TAM for various amounts of time (20 min, 40 min, and 60 min). Drug treatment was accomplished by addition of 30 μL of 100× drug solution (50 μM) to 3 mL of media which was mixed and immediately added to the cells. For each time point, the media was removed, cells were trypsinized, and trypsinization was quenched with 3 mL phenol red-free RPMI 1640 media (no serum) at 4° C. Cells were pelleted by centrifugation at 300 g for 5 min at 10° C. The supernatant was decanted and the cells were re-suspended in 1 mL serum- and phenol red-free RPMI 1640 media and placed on ice.
For drug retention samples, the cells were treated for 1 h with 0.5 μM DOX, DOXSF, or DOX-TEG-TAM. Following drug treatment, the media was removed and replaced with 3 mL fresh, 37° C., full (containing serum and phenol red indicator) cell media and the cells were incubated for various times (0.5 h, 1 h, 3 h, and 6 h). Following the allotted release times, the cells were prepared as described above. […]
(§2) The extent of drug uptake and retention was measured by flow cytometry. Cells were analyzed with excitation at 488 nm (15 mW Ar ion laser), with emission monitored between 570 and 600 nm. Instrument settings were optimized for each cell line and held constant for all experiments; 10,000 cells were analyzed for anthracycline fluorescence. The data are presented as the mean fluorescence for each condition with the background, drug-free cell fluorescence subtracted.

MCF-7 cells = test: Uptake and release by flow cytometry; format: cell-based, human; conditions: for drug uptake (DOX fluorophore): MCF-7, 500 nM, up to 1 h
Method: as §1
(§3) For drug retention samples, the cells were treated for 1 h with 0.5 μM DOX, DOXSF, or DOX-TEG-TAM. Following drug treatment, the media was removed and replaced with 3 mL fresh, 37° C., full (containing serum and phenol red indicator) cell media and the cells were incubated for various times (0.5 h, 1 h, 3 h, and 6 h). Following the allotted release times, the cells were prepared as described above. Drug treatment was performed such that all cell samples would be prepared within 2 h.
as §2

MDA-MB-435 cells [1] = test: Uptake, release and competition by flow cytometry; format: cell-based, human; conditions: for decrease of uptake in the presence of tamoxifen: 10 μM tamoxifen competitor
Method: Additionally, uptake and release data were obtained for DOX, DOXSF, and DOX-TEG-TAM in estrogen receptor-negative MDA-MB-435 and MDA-MB-231 cells.
Competitive inhibition of drug uptake: If DOX-TEG-TAM targeting is AEBS mediated, the presence of a competitive ligand should inhibit uptake.
as §1, §3, §2
The cell samples were prepared and analyzed by flow cytometry as described above.

MDA-MB-435 cells [2] = test: Drug distribution by fluorescence microscopy; format: cell-based, human; conditions: for cellular distribution of fluorescence: 500 nM
Method: Furthermore, once the trigger has fired the DOX fluorophore should appear nuclear.
Analysis of drug distribution by fluorescence microscopy: MDA-MB-435 cells in log phase growth were dissociated with trypsin-EDTA and counted. Cells were suspended in media at 8.3×10^4 cells/mL and 3 mL of cell solution was aliquoted into 6 well plates and allowed to adhere overnight. The cells were treated with 0.5 μM DOX, DOXSF, or DOX-TEG-TAM for various amounts of time (5 min, 20 min, 40 min, 1 h, and 3 h). Drug treatment was accomplished by addition of 30 μL of 100× drug solution (50 μM) to 3 mL of media which was mixed and immediately added to the cells.
Following drug treatment, the media was removed and cells were washed once with 3 mL of serum- and phenol red-free RPMI 1640 at room temperature and 3 mL of the same media was then added back to each well. The cells were then immediately analyzed by fluorescence microscopy. Each condition was performed individually to minimize the amount of time between drug treatment and fluorescence detection.

COc1cccc2c1C(=O)c1c(O)c3c(c(O)c1C2=O)C[C@@](O)(C(=O)CO)C[C@@H]3O[C@H]1C[C@H](N)[C@H](O)[C@H](C)O1 [doxorubicin, reference compound]
IC50 (MDA-MB-231; Homo sapiens, MDA-MB-231, 4 h): 300 ± 33 nM | IC50 (Rtx-6 cells): 200 nM | drug uptake (DOX fluorophore) (MCF-7/Adr cells): one relative fluorescent unit | drug uptake (DOX fluorophore) (MCF-7 cells): 5 RFU | decrease of uptake in the presence of tamoxifen (MDA-MB-435 cells [1]; MDA-MB-435, 0.5 μM drug, 1 h): 8% | cellular distribution of fluorescence (MDA-MB-435 cells [2]; 20 min): observed in the nucleus | cellular distribution of fluorescence (MDA-MB-435 cells [2]; 3 h): exclusively nuclear

COc1cccc2c1C(=O)c1c(O)c3c(c(O)c1C2=O)C[C@@](O)(C(=O)CO)C[C@@H]3O[C@H]1C[C@H](NCNC(=O)c2ccccc2O)[C@H](O)[C@H](C)O1 [doxsaliform, N-(2-Hydroxybenzamido-methyl)-doxorubicin]
fold less cytotoxic than 11a-c (MDA-MB-231; MDA-MB-231): 2-3 fold | IC50 (MDA-MB-231; MDA-MB-231 (−/+/−), 4 h treatment): 80 ± 9 nM | IC50 (Rtx-6 cells): 60 nM | drug uptake (DOX fluorophore) (MCF-7/Adr cells): one relative fluorescent unit | drug uptake (DOX fluorophore) (MCF-7 cells): 16 RFU | decrease of uptake in the presence of tamoxifen (MDA-MB-435 cells [1]; MDA-MB-435, 0.5 μM drug, 1 h): 6% | localization pattern (MDA-MB-435 cells [2]; control experiment, 0.5 μM): exclusively nuclear

CC/C(=C(/c1ccc(O)cc1)c1ccc(OCCN(C)CCOCCOCCO/N=C/c2ccc(O)c(C(=O)NCN[C@H]3C[C@H](O[C@H]4C[C@](O)(C(=O)CO)Cc5c(O)c6c(c(O)c54)C(=O)c4c(OC)cccc4C6=O)O[C@@H](C)[C@H]3O)c2)cc1)c1ccccc1 [11c, E/Z-N-(2-Hydroxy-5-{[2-(2-{2-[(2-{4-[1-(4-hydroxy-phenyl)-2-phenyl-but-1-enyl]-phenoxy}-ethyl)-methyl-amino]-ethoxy}-ethoxy)-ethoxyimino]-methyl}-benzamide)-doxorubicin]
IC50 (MDA-MB-231; MDA-MB-231 (−/+/−), 4 h treatment, listed as DOX-TEG-TAM): 30 ± 5 nM | IC50 (Rtx-6 cells): 70 nM | drug uptake (DOX fluorophore) (MCF-7/Adr cells): almost twice as much | drug retention (MCF-7/Adr cells; 6 h after 1 h treatment with 500 nM): maintained a higher level of drug retention relative to DOX and DOXSF | drug uptake (DOX fluorophore) (MCF-7 cells): 25 RFU | uptake relative to MDA-MB-435 cells (MCF-7 cells; MCF-7, 1 h, 500 nM): about 25% | fluorophore retention (MCF-7 cells; MCF-7, drug release after 6 h): highest level of doxorubicin fluorophore retention | fold uptake more than DOX (MDA-MB-435 cells [1]; MDA-MB-435): 5 fold | fold uptake more than DOXSF (MDA-MB-435 cells [1]; MDA-MB-435): 3 fold | effect of estradiol on uptake (MDA-MB-435 cells [1]; MDA-MB-435, 20 nM estradiol): no effect | uptake as % of uptake in the absence of competitor (MDA-MB-435 cells [1]; MDA-MB-435, 0.5 μM drug, 1 h, 10 μM tamoxifen): 47% | fluorophore retention vs DOXSF or DOX (MDA-MB-435 cells [1]; MDA-MB-435, after 1 h treatment with 500 nM): retained to a greater extent | cellular distribution of fluorescence (MDA-MB-435 cells [2]; 20 min): cytosolic fluorescence was observed | cellular distribution of fluorescence (MDA-MB-435 cells [2]; 3 h): predominantly nuclear
